Experimental data published in patent US20240130988A1, “Use of stilbene compounds in the preparation of anti-tumor drugs” (Guangzhou AnHao Pharmaceutical Technology CO., LTD., priority 2022, published 2024).
One block for each compound: values may come before it.

Legend:
[1] = system: human liver cancer QGY7703; experiment: Compound 6 combined with T cells, human liver cancer QGY7703 model in NOG mice; assay type: in vivo; settings: 8 × 10^6 T cells sc, compound 6 200 mg/kg ip, or both
Protocol: Experimental method: QGY7703 tumor cells were washed twice with PBS, and then resuspended with PBS:Matrix (1:1 mixture by volume). The cell concentration was adjusted to 2.5×10^6/mL, and subcutaneously inoculated to the right armpit of experimental animals at 200 μL/mouse, i.e. 5×10^5 cells/mouse. When the tumor grew to about 50 mm^3, the mice were divided into groups for administration.
T cell culture and harvest: PBMCs of donors were activated and expanded in vitro according to the standard operating procedures for T cell culture. The cells in logarithmic growth phase were harvested and suspended in the medium at a moderate dose (2×10^7/mL) for future use.
T cells were administrated by subcutaneous injection, and the injection site was the same as the inoculation site of tumor cells.
The general conditions, body weight, tumor volume, and tumor weight of mice were recorded every 3 days. Based on the status of the tumor, whether EAL was further injected was decided.
(§1) The effect of combined medicaments was evaluated based on the Q value calculated by Jin's formula: […]
(§2) Ea+b represents the tumor inhibitory rate of the combined medicaments, while Ea and Eb represent the tumor inhibitory rates of medicament A and medicament B, respectively.

[2] = system: human lung cancer 95D and human liver cancer Bel7404; experiment: In vivo vascular necrosis of tumors, PCNA immunohistochemistry; set-up: species or system nude mice; settings: 400 mg/kg
[3] = system: human gastric cancer SGC7901; experiment: Compound 6 combined with paclitaxel, human gastric cancer SGC7901 xenograft in nude mice; assay type: in vivo; settings: paclitaxel 10 mg/kg iv, compound 6 200 mg/kg ip, combination 10 + 200
From the text: Experimental method: The model of human gastric cancer SGC7901 transplant tumor in nude mice was established by subcutaneously inoculating human gastric cancer SGC7901 cell lines into the armpits of nude mice. Cells were inoculated in an amount of 1×10^6, and after formation of the transplanted tumors by inoculation, the cells were passed 3 generations in nude mice before use. The vigorous growth of tumor tissue was cut into approximate 1.5 mm^3, and homogenized under sterile conditions, to prepare 1×10^7/mL of cell suspension. 0.1 mL of cell suspension was subcutaneously inoculated into the right armpit of nude mice. For transplanted tumors in nude mice, the diameter was measured with vernier caliper. After the tumor grew to 100 mm^3, the animals were randomly divided into groups, with 6 mice in each group. […] The measurement frequency of tumor diameter was once every three days. The dosage by volume was 0.1 mL/20 g. The mice in the negative control group were given an equal amount of physiological saline by intravenous injection. The effect of combined medicaments was evaluated based on the Q value calculated by Jin's formula: […]
as §2

[4] = system: human lung cancer A549; experiment: Compound 8 combined with carboplatin, human lung cancer A549 xenograft in nude mice; assay type: in vivo; settings: ip: carboplatin 10 mg/kg, compound 8 200 mg/kg, combination 10 + 200
From the text: Experimental method: The model of human lung cancer A549 transplant tumor in nude mice was established by subcutaneously inoculating human lung cancer A549 cell lines into the armpits of nude mice. Cells were inoculated in an amount of 1×10^6, and after formation of the transplanted tumors by inoculation, the cells were passed 3 generations in nude mice before use. The vigorous growth of tumor tissue was cut into approximate 1.5 mm^3, and homogenized under sterile conditions, to prepare 1×10^7/mL of cell suspension. 0.1 mL of cell suspension was subcutaneously inoculated into the right armpit of nude mice. For transplanted tumors in nude mice, the diameter was measured with vernier caliper. After the tumor grew to 100 mm^3, the animals were randomly divided into groups, with 6 mice in each group. Using the method of measuring tumor diameter, the anti-tumor effect of test compound was dynamically Observed. Compound 8 was administered at 200 mg/kg by intraperitoneal injection, once every other day, for three weeks; carboplatin was administered at 10 mg/kg by intraperitoneal injection, once every other day, for three weeks. The measurement frequency of tumor diameter was once every three days. The dosage by volume was 0.1 mL/20 g. The mice in the negative control group were given an equal amount of physiological saline by intravenous injection. The effect of combined medicaments was evaluated based on the Q value calculated by Jin's formula: […]
Ea+b represents the tumor inhibitory rate of the combined medicaments, while Ea and Eb represent the tumor inhibitory rates of medicament A and medicament B, respectively. For example, the Q value of 0.85-1.15 means additive action (+), while the Q value of >1.15 means synergistic action (++).

[5] = system: Lewis non-small cell lung cancer; experiment: Compound 11 combined with PD-L1, Lewis non-small cell lung cancer model in mice; assay type: in vivo, C57BL/6 mice; settings: ip: PD-L1 10 mg/kg, compound 11 200 mg/kg, combination 10 + 200
From the text: Experimental method: The model of transplant tumor in C57BL/6 mice was established by subcutaneously inoculating Lewis non-small cell lung cancer cell lines into the armpits of C57BL/6 mice. Cells were inoculated in an amount of 1×10^6, and after formation of the transplanted tumors by inoculation, the cells were passed 3 generations in C57BL/6 mice before use. The vigorous growth of tumor tissue was cut into approximate 1.5 mm^3, and homogenized under sterile conditions, to prepare 1×10^7/mL of cell suspension. 0.1 mL of cell suspension was subcutaneously inoculated into the right armpit of C57BL/6 mice. For transplanted tumors in C57BL/6 mice, the diameter was measured with vernier caliper. After the tumor grew to 100 mm^3, the animals were randomly divided into groups, with 6 mice in each group. […] The measurement frequency of tumor diameter was once every three days. The dosage by volume was 0.1 mL/20 g. The mice in the negative control group were given an equal amount of physiological saline by intravenous injection.
as §1, §2

Terminal weight [1]: 24.5 ± 0.9 g | Terminal weight [3]: 22.9 ± 1.2 g
SMILES: COc1ccc(/C=C(/C(=O)O)c2cc(OC)c(OC)c(OC)c2)cc1O [Compound 6, (E)-3-(3-hydroxy-4-methoxyphenyl)-2-(3,4,5-trimethoxyphenyl)acrylic acid]
RTV(d 32) [1]: 19.62 ± 3.17 | Tumor inhibitory rate % [1]: 39.61% | Damage to the blood vessels of tumors (PCNA immunohistochemistry) ([2]; 4 h after oral administration): only some vascular endothelial cells proliferated in the tumor tissues | Damage to the blood vessels of tumors (PCNA immunohistochemistry) ([2]; 24 h after oral administration): massive blood flow blockade and necrosis of tumor tissues | RTV (d 21) [3]: 6.21 ± 1.88 | Tumor inhibitory rate % [3]: 54.07%

SMILES: COc1cc(/C(=C\c2cc(O)c(OC)c(F)c2)C(=O)O)cc(OC)c1OC [Compound 8, (E)-3-(5-fluoro-3-hydroxy-4-methoxyphenyl)-2-(3,4,5-trimethoxyphenyl)acrylic acid]
RTV (d 21) [4]: 4.85 ± 1.37 | Tumor inhibitory rate % [4]: 62.32%

Terminal weight [5]: 23.1 ± 0.9 g
SMILES: COc1cc(/C(=C\c2cc(O)c(OC)c(O)c2)C(=O)O)cc(OC)c1OC [Compound 11, (E)-3-(3,5-dihydroxy-4-methoxyphenyl)-2-(3,4,5-trimethoxyphenyl)acrylic acid]
RTV (d 18) [5]: 7.62 ± 2.28 | Tumor inhibitory rate % [5]: 48.76%
